Laboratory results taken from the supplement of paper PMC10307832.

Tests used:
Test in all cases: relative viability (nuclei count vs DMSO), 5 days (fraction); higher = more cells survive
[1] = compound: CC1=CC=C(C=C1)C(=O)CN2C3=C(CCCC3)SC2=N [Pifithrin_alpha] + C[C@@H](Oc1cc(-c2cnn(C3CCNCC3)c2)cnc1N)c1c(Cl)ccc(F)c1Cl [Crizotinib] (partner 1 µM)
Outline: (§1)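 Five library-drug doses in √10 steps were combined with a fixed anchor-drug dose, or a single drug was given alone, by pin tool to lung cancer cell lines in 1536-well plates the day after seeding. Nuclei were stained and counted after 5 days. Relative viability is the nuclei count in treated wells over that in vehicle wells, taken as the median of duplicate plates.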

[2] = compound: Nc1nc(Nc2ccc3c(c2)CC[C@@H](N2CCCC2)CC3)nn1-c1cc2c(nn1)-c1ccccc1CCC2 [Bemcentinib] + CC(C)C[C@H](NC(=O)[C@H](Cc1ccccc1)NC(=O)c1cnccn1)B(O)O [Bortezomib] (partner 0.002 µM)
Outline: as §1

[3] = compound: CC1=CC=C(C=C1)C(=O)CN2C3=C(CCCC3)SC2=N [Pifithrin_alpha] + Nc1ncn([C@H]2C[C@H](O)[C@@H](CO)O2)c(=O)n1 [Decitabine] (partner 2 µM)
Outline: as §1

[4] = compound: CC1=CC=C(C=C1)C(=O)CN2C3=C(CCCC3)SC2=N [Pifithrin_alpha] + C[C@]1(O)C[C@@H](c2nc(-c3ccc4ccc(-c5ccccc5)nc4c3)c3c(N)nccn32)C1 [Linsitinib] (partner 1 µM)
Outline: as §1

Row | Cell Line | relative viability ([1]; first compound 1 µM) | relative viability ([1]; first compound 3.162 µM) | relative viability ([1]; first compound 10 µM) | relative viability ([1]; first compound 31.62 µM) | relative viability ([1]; first compound 100 µM) | relative viability ([2]; first compound 0.04 µM) | relative viability ([2]; first compound 0.1265 µM) | relative viability ([2]; first compound 0.4 µM) | relative viability ([2]; first compound 1.265 µM) | relative viability ([2]; first compound 4 µM) | relative viability ([3]; first compound 1 µM) | relative viability ([3]; first compound 3.162 µM) | relative viability ([3]; first compound 10 µM) | relative viability ([3]; first compound 31.62 µM) | relative viability ([3]; first compound 100 µM) | relative viability ([4]; first compound 1 µM) | relative viability ([4]; first compound 3.162 µM) | relative viability ([4]; first compound 10 µM) | relative viability ([4]; first compound 31.62 µM) | relative viability ([4]; first compound 100 µM)
1 | NCI-H2126 | 1.03 | 1.05 | 0.886 | 0.768 | 0.953 | 1.11 | 1.07 | 1.18 | 1.16 | 1.13 | 0.518 | 0.594 | 0.576 | 0.49 | 0.548 | 0.696 | 0.695 | 0.68 | 0.661 | 0.682
2 | NCI-H2347 | 0.647 | 0.868 | 0.696 | 0.55 | 0.643 | 0.831 | 1.03 | 0.967 | 0.901 | 1.11 | 0.576 | 0.685 | 0.603 | 0.65 | 0.698 | 0.967 | 0.913 | 0.907 | 0.635 | 0.95
3 | NCI-H2405 | 0.821 | 0.815 | 0.796 | 0.741 | 0.822 | 1.01 | 0.853 | 0.985 | 1.07 | 0.938 | – | 0.678 | 0.708 | 0.592 | 0.668 | – | 0.869 | 0.867 | 0.804 | 0.776
4 | NCI-H3122 | 0.288 | 0.323 | 0.291 | 0.296 | 0.321 | 0.911 | 1.04 | 0.991 | 0.937 | 0.994 | 0.529 | 0.443 | 0.539 | 0.364 | 0.468 | 1.07 | 1.06 | 1.03 | 0.879 | 1.08
5 | PC-3 [JPC-3] | 0.98 | 0.998 | 0.884 | 0.814 | 0.849 | 0.803 | 0.948 | 0.8 | 0.906 | 0.869 | – | 0.742 | – | 0.714 | 0.642 | 0.964 | 0.947 | 0.862 | 0.853 | 0.923
6 | PC-14 | 0.998 | 0.827 | 0.741 | 0.699 | 0.703 | 0.86 | 0.849 | 0.934 | 0.911 | 1 | 0.236 | 0.184 | 0.219 | 0.155 | 0.123 | 0.975 | 0.979 | 0.941 | 0.764 | 0.743
7 | RERF-LC-KJ | 0.824 | 0.69 | 0.754 | 0.696 | 0.659 | 1.1 | 1.29 | 1.3 | 1.21 | 1.09 | 0.681 | 0.621 | 0.562 | 0.382 | 0.451 | 0.885 | 0.769 | 0.745 | 0.727 | 0.631
8 | SK-LU-1 | 1.01 | 1.03 | 0.951 | 0.824 | 1.02 | 1.02 | 1.35 | 1.38 | 1.3 | 1.25 | 0.646 | 0.763 | 0.622 | 0.535 | 0.698 | 1.08 | 1.16 | 1.26 | 0.769 | 0.832
9 | SW 1573 | 0.789 | 0.753 | 0.857 | 0.664 | 0.656 | 1.09 | 0.973 | 1.14 | 0.97 | 1.15 | 0.516 | 0.449 | 0.509 | – | 0.587 | 0.82 | 0.713 | 0.698 | 0.768 | 0.758
10 | UMC-11 | 0.64 | 0.758 | 0.63 | 0.515 | 0.757 | 0.413 | 0.771 | 0.724 | 0.428 | 0.682 | 0.551 | 0.601 | 0.597 | 0.525 | 0.595 | 1.16 | 1.01 | 1.1 | 0.913 | 1.49
